Key:
NF-kB = NF-kB luciferase reporter activity in melanoma cells; type: cell-based, human; details: A375, 4 days; PGJ2 1.5 μM, Bay 11-7082 2 μM, sulfasalazine 50 μM (FIG. 8A)
Procedure: Cells were transfected with NF-kB-luciferase reporter (NF-kB-Luc, Qiagen Germantown Md.) sensitive to overall NF-kB activation and with CMV promoter b-Galactosidase (pCMVβGal) for normalization purpose. Lipofectamine 2000 (Invitrogen, Carlsbad, Calif.) was used as transfection agent. 48 hrs post transfection, luciferase activity was tested using the luciferase assay system kit (Promega) and measured with the Clarity Luminescence Microplate Reader (Bio-Tek Instruments, Winooski, Vt.).
For gene reporter activity post gene silencing using RNA interference, cells were first transfected with SiRNAs according to experimental design using as transfecting agent Lipofectamine RNAimax as previously described. 24 hrs post transfection cells were again transfected using EZH2 promoter Renilla construct or NF-kB-luciferase reporter and pCMVβGal. 48 hrs after addition of the reporter plasmid, cells were harvested and luciferase or Renilla activity measured as above mentioned.

EZH2 [1] = experiment: qRT-PCR analysis of EZH2 mRNA in A375 cells; type: cell-based, human; details: for EZH2 mRNA: A375 cells treated for 3 days (FIG. 1B)
Procedure: Transfection experiments with Small interfering RNAs (siRNAs): Typically 30 000 to 50 000 cells were plated in 6-well culture plates and transfected 24 hours later with 25 nM or 50 nM siRNAs using Lipofectamine RNAimax (Invitrogen) according to manufacturer protocol. If not otherwise described cells were incubated with the si-RNA for 4 days prior harvesting for further experiments. […] As non specific control, a scramble sequence siRNA was used (cat. 16106, Ambion, Life Technologies, Grand Island, N.Y.).
(§1) Quantitative RT-PCR analysis: Total RNA was isolated from cells using RNAeasy minikit (Qiagen) according to manufacturer's procedure. Reverse transcription was performed using AMV reverse transcription system (Promega) while quantitative PCR was performed with Power Sybr green (Applied biosystem, Life Technologies, Grand Island, N.Y.) following manufacturer instructions (List of primers are available in supplementary information). PCR reaction was carried on a Step One plus Real-Time PCR system (Applied Biosystems). All analyses were done in triplicate and melting curve analysis was performed to control for product quality and specificity. Expression levels were calculated using the comparative method of relative quantification, with SB34 as normalizer. Data were analyzed for their statistical significance applying Student's t-test. Results are presented as mean±SEM relative to the control.
(§2) Transcription Factor Decoys (TFD) preparation and treatment. Double stranded TFDs were obtained by annealing at 95 C two complementary single stranded oligos (purchased from Invitrogen). TFDs were designed by copying the NF-kB2 sequences discovered on the EZH2 promoter (i.e. p52 decoy referred as and TFD4 as previously described). […] If not otherwise described cells were incubated with the TFDs for 4 days prior harvesting for qPCR evaluation of EZH2 levels or Senescence associated-β-Gal assay. As non specific control, a scramble sequence was used.

EZH2 [2] = experiment: Western blot of EZH2 protein in melanoma cell lines; type: cell-based, human; details: metastatic melanoma cell lines carrying or not B-RAF V600E; PGJ2 2 μM 3 days, Bay 11-7082 2 μM 4 days
Procedure: Western Blot: Twenty to thirty micrograms of total proteins were run on 12% SDS-polyacrylamide gel electrophoresis. After transfer to polyvinylidene fluoride membrane (Millipore), immunoblotting was performed according to Laemli method. Glyceraldehyde-3-phosphate dehydrogenase (GAPDH), β-Actin or ERK2 were used as loading controls. Membranes were then incubated with an enhanced chemiluminescence system (Amersham) and immunoreactive bands were visualized using the luminescent image analyzer Fujifilm LAS-4000 (GE Healthcare).

melanoma = details: cited from earlier work
A375 melanoma cells = experiment: Senescence associated-β-Gal assay; type: cell-based, human; details: 4 days
Procedure: Senescence associated-β-Gal assay: Cells were washed then fixed for 15 min at RT and stained using the Senescence β-Galactosidase staining kit following manufacturer instruction (Cell Signaling, Beverly, Mass.). A blue color reflects the β-Gal activity.
as §2

EZH2 [3] = experiment: EZH2 level in melanoma cells cultured from patients' metastases; type: cell-based, human; details: melanoma cells from nine patients' metastases, PGJ2 2 μM 3 days / 1.5 μM 4 days
Procedure: Cell Culture: HEK293, Human A375 (CRL-1619), SK-Mel-28 (HTB-72) and MeWo (HTB-65) melanoma cell lines were purchased from American Tissue Culture Collection (Molsheim, France). Human primary melanoma cells were extracted from metastatic melanoma specimens that were obtained from the Department of Dermatology and the Biobank of the University hospital of Nice, France. All patients provided informed written consent. Biopsy was dissected and digested for 1-2 h with collagenase A (0.33 U/ml), dispase (0.85 U/ml) and Dnase I (144 U/ml) with rapid shaking at 37° C. Large debris were removed by filtration through a 70-μm cell strainer. Viable cells were obtained by Ficoll gradient centrifugation. […]
as §1, with “PCR reaction was carried on a Step One plus Real-Time PCR system (Applied Biosystems). All analyses were done in triplicate and melting curve analysis was performed to control for product quality and specificity.” left out, “Results are presented as mean±SEM relative to the control.” left out

Molecule	NF-kB activity (NF-kB)	EZH2 mRNA (EZH2 [1])	EZH2 at protein level (EZH2 [2])	senescence / SA-β-Gal activity (A375 melanoma cells)	further results
Cc1ccc(S(=O)(=O)/C=C/C#N)cc1 [Bay 11-7082]	inhibition of NF-kB activity	marked decrease	decrease of EZH2 at protein level		
Ipilimumab: anti-CTLA-4 antibody used for the treatment of melanoma					patients responding to treatment (melanoma; melanoma patients): 10%; overall survival (melanoma; stage 4 melanoma patients): increased the overall survival
TFD4: p52 decoy, double stranded DNA ODN: forward ATCGGGGCTCACC (SEQ ID NO: 8), reverse GGTGAGCCCCGAT (SEQ ID NO: 9) (DNA, backbone and methylation of C not given here)				induce senescence	
TFD1: p52 decoy, double stranded DNA ODN: forward ATCGGGTCTCC (SEQ ID NO: 6), reverse GGAGAGCCCGAT (SEQ ID NO: 7) (DNA, backbone and methylation of C not given here)				induce senescence	
O=C(O)c1cc(/N=N/c2ccc(S(=O)(=O)Nc3ccccn3)cc2)ccc1O [sulfasalazine]	inhibition of NF-kB activity	marked decrease	decrease of EZH2 at protein level		
CCCCC/C=C/C=C1/C(=O)C=C[C@@H]1C/C=C\CCCC(=O)O [PGJ2, 15-deoxy-delta12,14-Prostaglandin J2]	inhibition of NF-kB activity	marked decrease	decrease of EZH2 at protein level		start of effect on EZH2 mRNA (EZH2 [1]; A375, time and dose dependent (FIG. 1C)): ≤ 6 h; EZH2 protein level (EZH2 [3]): consistent decrease of EZH2

Reference: patent US20160208249A1, “Compositions and Methods for Inducing Senescence in Cancer Cells” (INSERM (Institut National de la Sante et de la Recherche …, priority 2013, published 2016)
